From US20260062422A1 (Halda Therapeutics OpCo, Inc., priority 2022, published 2026)

Tests used:
[1] = system: T-Rex 293 cell line SC cells lacking increased expression of progesterone receptor isoform B protein; experiment: Cellular growth inhibition, T-Rex 293 SC cells without doxycycline, Example 45; format: cell-based; details: T-Rex 293 SC cells not exposed to doxycycline, 72 hours treatment, CellTiter-Glo 2.0
Procedure: (§1) The following types of cells were prepared for this experiment: (i) a T-Rex 293 cell line having increased expression of progesterone receptor isoform B protein due to exposure to doxycycline and (ii) a T-Rex 293 cell line lacking increased expression of progesterone receptor isoform B protein. Ability of the test compounds to inhibit proliferation of the foregoing cell types was evaluated according to the procedures set forth below.
(§2) The doxycycline-inducible progesterone receptor isoform B protein expressing cell line was established using the following protocol: T-Rex 293 cells were purchased from Invitrogen (Cat #R71007) and transfected using Lipofectamine 2000 with the wild-type progesterone receptor B protein sequence cloned into the pcDNA4/TO vector. Transfected cells were selected using 400 μg/mL Zeocin (Invitrogen Cat #R25001). Following selection, single clones were raised and maintained in Dulbecco's Modified Eagle Medium (DMEM) supplemented with 10% w/w Tetracycline-free fetal bovine serum (FBS) and 250 μg/mL Zeocin. Clones were analyzed for expression of progesterone receptor isoform B protein in the presence and absence of 10 ng/mL doxycycline (Sigma Cat #D9891), and a single doxycycline-inducible clone (hereinafter “SC”) was selected for use in downstream assays.
(§3) The SC cells were seeded on poly-D-lysine coated, black clear-bottom 384-well plates at 2500/well, in 25 μL Phenol Red Free Dulbecco's Modified Eagle Medium (DMEM) supplemented with 10% w/w charcoal-dextran treated fetal bovine serum (FBS) and 1% w/w pen-strep, with or without 10 ng/mL doxycycline. Pen-Strep is a commercially available mixture of penicillin G and streptomycin, which is used in mammalian cell culture media to prevent bacterial contamination. Phenol Red Free Dulbecco's Modified Eagle Medium (DMEM) supplemented with 10% w/w charcoal-dextran treated fetal bovine serum (FBS) and 1% w/w pen-strep, with or without 10 ng/mL doxycycline is herein referred to as Treatment Medium. Following seeding of cells in the plates, the plates were spun at 300×g for 30 seconds, then equilibrated to room temperature for 30 minutes, and then deposited in a humidified tissue culture incubator maintained at 37° C. with 5% CO2.
(§4) At 24 hours after seeding of the cells, dilutions of test compound were prepared in DMSO and dissolved in Treatment Medium, to achieve a final DMSO concentration of 0.5% w/w, thereby providing the Test Compound Solution. A 25 μL aliquot of the Test Compound Solution was added to cells in the well plates. An equal volume of a solution containing DMSO and Treatment Medium was used as a negative control. Following treatment of cells with Test Compound Solution or said equal volume of a solution containing DMSO and Treatment Medium, the plates were spun at 300×g for 30 seconds, and then left in an incubator for 72 hours.
(§5) At the end of the treatment duration, cell viability was quantified with CellTiter-Glo 2.0 reagent (Promega Cat #G9243). For this purpose, plates were equilibrated to room temperature for 30 minutes, and then 25 μL of CellTiter-Glo 2.0 reagent was added to cells in the plate wells. Plates were then agitated on a shaker for two minutes at 500 rpm and subsequently incubated at room temperature for 10 minutes. Following incubation, the plates were spun at 3000×g for 30 seconds, then sealed with an optical adhesive cover, and luminescence readings were measured with an EnVision Plate Reader (Perkin Elmer).
(§6) Data was normalized using zero luminescence for baseline. A four-parameter non-linear regression curve fit was applied to dose-response data in GraphPad Prism data analysis software to determine the half-maximal growth inhibitory concentration (GI50) for each test compound.

[2] = Cellular growth inhibition, T-Rex 293 SC cells with doxycycline (progesterone receptor isoform B induced), Example 45; format: cell-based; details: progesterone receptor isoform B induced with 10 ng/mL doxycycline, 72 hours, CellTiter-Glo 2.0, Table 11
Procedure: as §1, §2, §3, §4, §5, §6

Compound | GI50 [1] | GI50 [2]
Cc1sc2c(c1C)C(c1ccc(C#CCN3CCN(c4ncc(C(=O)N[C@H]5C(C)(C)[C@H](Oc6ccc(C#N)c(Cl)c6)C5(C)C)cn4)CC3)cc1)=N[C@@H](CC(=O)OC(C)(C)C)c1nnc(C)n1-2 [Compound I-55] | 500 to 1500 nM | < 500 nM
Cc1sc2c(c1C)C(c1ccc(CC3CN(CC4CCN(c5ncc(C(=O)N[C@H]6C(C)(C)[C@H](Oc7ccc(C#N)c(Cl)c7)C6(C)C)cn5)CC4)C3)cc1)=N[C@@H](Cc1ncco1)c1nnc(C)n1-2 [Compound I-153] | < 500 nM | < 500 nM
Cc1sc2c(c1C)C(c1ccc(O[C@H]3CC[C@@]4(CCCN(c5ncc(C(=O)N[C@H]6C(C)(C)[C@H](Oc7ccc(C#N)c(Cl)c7)C6(C)C)cn5)C4)CC3)cc1)=N[C@@H](Cc1ncco1)c1nnc(C)n1-2 [Compound I-172] | 500 to 1500 nM | < 500 nM
Cc1sc2c(c1C)C(c1ccc(N3CC(CC4CCN(c5ncc(C(=O)N[C@H]6C(C)(C)[C@H](Oc7ccc(C#N)c(Cl)c7)C6(C)C)cn5)CC4)C3)cc1)=N[C@@H](C)c1nnc(C)n1-2 [Compound I-270] | 500 to 1500 nM | < 500 nM
CCNC(=O)C[C@@H]1N=C(c2ccc(OCCCC#Cc3ncc(C(=O)N[C@H]4C(C)(C)[C@H](Oc5ccc(C#N)c(Cl)c5)C4(C)C)cn3)cc2)c2c(sc(C)c2C)-n2c(C)nnc21 [Compound I-83] | 500 to 1500 nM | < 500 nM
Cc1sc2c(c1C)C(c1ccc(CC3CC(C4CCN(c5ncc(C(=O)N[C@H]6C(C)(C)[C@H](Oc7ccc(C#N)c(Cl)c7)C6(C)C)cn5)CC4)C3)cc1)=NC(Cc1ncco1)c1nnc(C)n1-2 (stereo partly drawn) [Compound I-136] | > 3000 nM | < 500 nM
CCNC(=O)C[C@@H]1N=C(c2ccc(OC3CCN(c4ncc(C(=O)N[C@H]5C(C)(C)[C@H](Oc6ccc(C#N)c(Cl)c6)C5(C)C)cn4)CC3)cc2)c2c(sc(C)c2C)-n2c(C)nnc21 [Compound I-61] | 500 to 1500 nM | < 500 nM
Cc1sc2c(c1C)C(c1ccc(C#CC3CC4(CCN(c5ncc(C(=O)N[C@H]6C(C)(C)[C@H](Oc7ccc(C#N)c(Cl)c7)C6(C)C)cn5)CC4)C3)cc1)=N[C@@H](Cc1ncco1)c1nnc(C)n1-2 [Compound I-267] | 500 to 1500 nM | < 500 nM
Cc1sc2c(c1C)C(c1ccc(OCCOC3CCN(c4ncc(C(=O)N[C@H]5C(C)(C)[C@H](Oc6ccc(C#N)c(Cl)c6)C5(C)C)cn4)CC3)cc1)=N[C@@H](CC(=O)O)c1nnc(C)n1-2 [Compound I-38] | > 3000 nM | > 3000 nM
Cc1sc2c(c1C)C(c1ccc(N3CC(C4CCN(c5ncc(C(=O)N[C@H]6C(C)(C)[C@H](Oc7ccc(C#N)c(Cl)c7)C6(C)C)cn5)CC4)C3)cc1)=N[C@@H](C)c1nnc(C)n1-2 [Compound I-271] | 500 to 1500 nM | < 500 nM
Cc1sc2c(c1C)C(c1ccc(CCC3CC4(CCCN(c5ncc(C(=O)N[C@H]6C(C)(C)[C@H](Oc7ccc(C#N)c(Cl)c7)C6(C)C)cn5)C4)C3)cc1)=N[C@@H](Cc1ncco1)c1nnc(C)n1-2 [Compound I-241] | 500 to 1500 nM | < 500 nM
Cc1sc2c(c1C)C(c1ccc(OC3CC4(CCN(c5ncc(C(=O)N[C@H]6C(C)(C)[C@H](Oc7ccc(C#N)c(Cl)c7)C6(C)C)cn5)CC4)C3)cc1)=N[C@@H](Cc1ncco1)c1nnc(C)n1-2 [Compound I-49, N-[3-(3-chloro-4-cyano-phenoxy)-2,2,4,4-tetramethyl-cyclobutyl]-2-[2-[4-[(9S)-4,5,13-trimethyl-9-(oxazol-2-ylmethyl)-3-thia-1,8,11,12-tetrazatricyclo[8.3.0.02,6]trideca-2(6),4,7,10,12-pentaen-7-yl]phenoxy]-7-azaspiro[3.5]nonan-7-yl]pyrimidine-5-carboxamide] | 500 to 1500 nM | < 500 nM
Cc1sc2c(c1C)C(c1ccc(C[C@H]3C[C@@H]([C@@H]4CCCN(c5ncc(C(=O)N[C@H]6C(C)(C)[C@H](Oc7ccc(C#N)c(Cl)c7)C6(C)C)cn5)C4)C3)cc1)=N[C@@H](Cc1ncco1)c1nnc(C)n1-2 [Compound I-161] | > 3000 nM | < 500 nM
CCNC(=O)C[C@@H]1N=C(c2ccc(OC3CCN(C4CCN(c5ncc(C(=O)N[C@H]6C(C)(C)[C@H](Oc7ccc(C#N)c(Cl)c7)C6(C)C)cn5)CC4)C3)cc2)c2c(sc(C)c2C)-n2c(C)nnc21 (stereo partly drawn) [Compound I-85] | 500 to 1500 nM | < 500 nM
Cc1sc2c(c1C)C(c1ccc(OC3CC4(C3)CC3(CCN(c5ncc(C(=O)N[C@H]6C(C)(C)[C@H](Oc7ccc(C#N)c(Cl)c7)C6(C)C)cn5)CC3)C4)cc1)=N[C@@H](Cc1ncco1)c1nnc(C)n1-2 [Compound I-283] | > 3000 nM | < 500 nM
Cc1sc2c(c1C)C(c1ccc(N3CC(C4CCN(c5ncc(C(=O)N[C@H]6C(C)(C)[C@H](Oc7ccc(C#N)c(Cl)c7)C6(C)C)cn5)CC4)C3)cc1)=NC(Cc1ncco1)c1nnc(C)n1-2 (stereo partly drawn) [Compound I-209] | 500 to 1500 nM | < 500 nM
CCNC(=O)C[C@@H]1N=C(c2ccc(Oc3ncc(C(=O)N[C@H]4C(C)(C)[C@H](Oc5ccc(C#N)c(Cl)c5)C4(C)C)cn3)cc2)c2c(sc(C)c2C)-n2c(C)nnc21 [Compound I-84] | 500 to 1500 nM | < 500 nM
Cc1sc2c(c1C)C(c1cccc(OCCOC3CCN(c4ncc(C(=O)N[C@H]5C(C)(C)[C@H](Oc6ccc(C#N)c(Cl)c6)C5(C)C)cn4)CC3)c1)=N[C@@H](CC(=O)O)c1nnc(C)n1-2 [Compound I-41] | > 3000 nM | > 3000 nM
CCNC(=O)C[C@@H]1N=C(c2ccc(N(C)C3CC(OC4CCN(c5ncc(C(=O)N[C@H]6C(C)(C)[C@H](Oc7ccc(C#N)c(Cl)c7)C6(C)C)cn5)CC4)C3)cc2)c2c(sc(C)c2C)-n2c(C)nnc21 (stereo partly drawn) [Compound I-130] | < 500 nM | < 500 nM
CCNC(=O)C[C@@H]1N=C(c2ccc(OCCOCCOC3CCN(c4ncc(C(=O)N[C@H]5C(C)(C)[C@H](Oc6ccc(C#N)c(Cl)c6)C5(C)C)cn4)CC3)cc2)c2c(sc(C)c2C)-n2c(C)nnc21 [Compound I-44] | < 500 nM | < 500 nM
CCNC(=O)C[C@@H]1N=C(c2cccc(OCCOC3CCN(c4ncc(C(=O)N[C@H]5C(C)(C)[C@H](Oc6ccc(C#N)c(Cl)c6)C5(C)C)cn4)CC3)c2)c2c(sc(C)c2C)-n2c(C)nnc21 [Compound I-46, N-((1r,3r)-3-(3-chloro-4-cyanophenoxy)-2,2,4,4-tetramethylcyclobutyl)-2-(4-(2-(3-((S)-6-(2-(ethylamino)-2-oxoethyl)-2,3,9-trimethyl-6H-thieno[3,2-f][1,2,4]triazolo[4,3-a][1,4]diazepin-4-yl)phenoxy)ethoxy)piperidin-1-yl)pyrimidine-5-carboxamide] | 500 to 1500 nM | < 500 nM
CCNC(=O)C[C@@H]1N=C(c2ccc(N(C3CC3)C3CN(CC4CCN(c5ncc(C(=O)N[C@H]6C(C)(C)[C@H](Oc7ccc(C#N)c(Cl)c7)C6(C)C)cn5)CC4)C3)cc2)c2c(sc(C)c2C)-n2c(C)nnc21 [Compound I-129] | 500 to 1500 nM | < 500 nM
CCNC(=O)C[C@@H]1N=C(c2ccc(C#CCN3CCN(c4ncc(C(=O)N[C@H]5C(C)(C)[C@H](Oc6ccc(C#N)c(Cl)c6)C5(C)C)cn4)CC3)cc2)c2c(sc(C)c2C)-n2c(C)nnc21 [Compound I-54, N-[3-(3-chloro-4-cyano-phenoxy)-2,2,4,4-tetramethyl-cyclobutyl]-2-[4-[3-[4-[(9S)-9-[2-(ethylamino)-2-oxo-ethyl]-4,5,13-trimethyl-3-thia-1,8,11,12-tetrazatricyclo[8.3.0.02,6]trideca-2(6),4,7,10,12-pentaen-7-yl]phenyl]prop-2-ynyl]piperazin-1-yl]pyrimidine-5-carboxamide] | < 500 nM | < 500 nM
Cc1sc2c(c1C)C(c1ccc(Cl)cc1)=N[C@H](CC(=O)NCCOCCOCCOCCOCCOC1CCN(c3ncc(C(=O)N[C@H]4C(C)(C)[C@H](Oc5ccc(C#N)c(Cl)c5)C4(C)C)cn3)CC1)c1nnc(C)n1-2 [Compound I-14] | 1500 to 3000 nM | 500 to 1500 nM
